Experimental data published in ChEMBL document CHEMBL1123500, “Synthesis and antitumor activity of tropolone derivatives. 3” (1986).

Legend:
[1] = tested on: P388; assay: Antitumor activity in P388 inoculated mice following 5 mg/kg i.p. administration.; assay type: functional, Mus musculus; conditions: route intraperitoneal
[2] = In vitro inhibition of KB cell growth.; assay type: functional, Homo sapiens
[3] = tested on: P388; assay: Antitumor activity in P388 inoculated mice following 10 mg/kg i.p. administration.; assay type: functional, Mus musculus; conditions: route intraperitoneal
[4] = tested on: P388; assay: Antitumor activity against P388, was determined by injecting intraperitoneally in mice, at a dose of 20 mg/kg; assay type: functional, Mus musculus; conditions: route intraperitoneal
[5] = tested on: P388; assay: Antitumor activity against P388, was determined by injecting intraperitoneally in mice, at a dose of 5 mg/kg; conditions: route intraperitoneal
[6] = tested on: P388; assay: Antitumor activity against P388, was determined by injecting intraperitoneally in mice, at a dose of 50 mg/kg; assay type: functional, Mus musculus; conditions: route intraperitoneal
[7] = tested on: P388; assay: Antitumor activity against P388, was determined by injecting intraperitoneally in mice, at a dose of 100 mg/kg; assay type: functional, Mus musculus; conditions: route intraperitoneal
[8] = tested on: P388; assay: Antitumor activity against P388, was determined by injecting intraperitoneally in mice, at a dose of 400 mg/kg; assay type: functional, Mus musculus; conditions: route intraperitoneal
[9] = tested on: P388; assay: Antitumor activity against P388, was determined by injecting intraperitoneally in mice, at a dose of 200 mg/kg; assay type: functional, Mus musculus; conditions: route intraperitoneal
[10] = tested on: P388; assay: Antitumor activity against P388, was determined by injecting intraperitoneally in mice, at a dose of 1.3 mg/kg; assay type: functional, Mus musculus; conditions: route intraperitoneal
[11] = tested on: P388; assay: Antitumor activity against P388, was determined by injecting intraperitoneally in mice, at a dose of 2.5 mg/kg; assay type: functional, Mus musculus; conditions: route intraperitoneal
[12] = tested on: P388; assay: Antitumor activity against P388, was determined by injecting intraperitoneally in mice, at a dose of 10 mg/kg; assay type: functional, Mus musculus; conditions: route intraperitoneal

Row | SMILES | T/C [1] | Activity [2] | T/C [3] | T/C [4] | other results
1 | CC(C)c1ccc(C(c2ccc3c(c2)OCO3)c2ccc(C(C)C)cc(=O)c2O)c(O)c(=O)c1 | 182% | 0.5 µg/mL | 193% | 186% | 
2 | CC(C)c1ccc(C(c2cccs2)c2ccc(C(C)C)cc(=O)c2O)c(O)c(=O)c1 | 178% | 0.6 µg/mL | 57% |  | T/C [5]: 178%
3 | CC(C)c1ccc(C(c2ccc(OCc3ccccc3)cc2)c2ccc(C(C)C)cc(=O)c2O)c(O)c(=O)c1 |  | 4.65 µg/mL |  | 101% | T/C [6]: 148%; T/C [7]: 152%
4 | CC(C)c1ccc(C(c2ccc(-c3ccccc3)cc2)c2ccc(C(C)C)cc(=O)c2O)c(O)c(=O)c1 | 111% | 2.5 µg/mL | 138% | 127% | 
5 | CC(C)c1ccc(C(c2cccc3ccccc23)C(c2ccc(C(C)C)cc(=O)c2O)c2cccc3ccccc23)c(O)c(=O)c1 (stereo unspecified) |  | <100 µg/mL |  |  | T/C [8]: 95%; T/C [9]: 96%; T/C [7]: 98%
6 | CC(C)c1ccc(C(c2ccc(C(=O)O)cc2)c2ccc(C(C)C)cc(=O)c2O)c(O)c(=O)c1 |  | 0.5 µg/mL | 139% | 0% | T/C [10]: 124%; T/C [11]: 154%
7 | CC(C)c1ccc(C(c2ccccc2)c2ccc(C(C)C)cc(=O)c2O)c(O)c(=O)c1 | 188% | <0.3 µg/mL | 0% |  | T/C [10]: 132%; T/C [11]: 150%
8 | CC(C)c1ccc(C(c2ccc(OCc3ccccc3)cc2)C(c2ccc(OCc3ccccc3)cc2)c2ccc(C(C)C)cc(=O)c2O)c(O)c(=O)c1 (stereo unspecified) |  | <100 µg/mL |  |  | 
9 | COC(=O)c1ccc(C(c2ccc(C(C)C)cc(=O)c2O)c2ccc(C(C)C)cc(=O)c2O)cc1 | 145% | 0.5 µg/mL | 128% | 0% | 
10 | CC(C)c1ccc(C(c2ccc(C(C)C)cc(=O)c2O)c2cccc3ccccc23)c(O)c(=O)c1 | 180% | 2.6 µg/mL | 178% | 178% | 
11 | CC(C)c1ccc(C(c2ccc(C(c3ccc(C(C)C)cc(=O)c3O)c3ccc(C(C)C)cc(=O)c3O)cc2)c2ccc(C(C)C)cc(=O)c2O)c(O)c(=O)c1 | 107% | 100 µg/mL | 105% | 100% | 
12 | CCOC(=O)COc1ccc(C(c2ccc(C(C)C)cc(=O)c2O)c2ccc(C(C)C)cc(=O)c2O)cc1 | 125% |  |  | 0% | T/C [12]: 0%
13 | CC(C)c1ccc(C(c2ccco2)c2ccc(C(C)C)cc(=O)c2O)c(O)c(=O)c1 | 177% |  | 0% |  | T/C [10]: 132%; T/C [11]: 142%
14 | CC(C)c1ccc(C(c2ccc(OCC(=O)[O-])cc2)c2ccc(C(C)C)cc(=O)c2O)c(O)c(=O)c1.[Na+] | 109% | 2.6 µg/mL | 0% |  | 
15 | COc1cc(C(c2ccc(C(C)C)cc(=O)c2O)c2ccc(C(C)C)cc(=O)c2O)cc(OC)c1OC | 142% | <0.3 µg/mL | 151% | 162% | 
16 | COc1ccc(C(c2ccc(C(C)C)cc(=O)c2O)c2ccc(C(C)C)cc(=O)c2O)cc1 | 173% | <0.3 µg/mL | 170% |  | T/C [11]: 134%; T/C [12]: 170%
17 | COc1ccc(C(c2ccc(C(C)C)cc(=O)c2O)C(c2ccc(OC)cc2)c2ccc(C(C)C)cc(=O)c2O)cc1 (stereo unspecified) |  | 5.2 µg/mL |  |  | T/C [8]: 139%; T/C [9]: 140%; T/C [7]: 138%
18 | CC(C)c1ccc(C(c2ccc([N+](C)(C)C)cc2)c2ccc(C(C)C)cc(=O)c2O)c(O)c(=O)c1.[I-] | 102% | 2.5 µg/mL | 95% | 91% | 
19 | CC(C)c1ccc(C(c2ccc(N)cc2)c2ccc(C(C)C)cc(=O)c2O)c(O)c(=O)c1 | 138% |  | 147% | 147% | 
20 | CC(C)c1ccc(C(c2ccc(O)cc2)c2ccc(C(C)C)cc(=O)c2O)c(O)c(=O)c1 | 195% | <0.3 µg/mL | 0% |  | T/C [10]: 139%
21 | CC(=O)Nc1ccc(C(c2ccc(C(C)C)cc(=O)c2O)c2ccc(C(C)C)cc(=O)c2O)cc1 | 171% | <0.3 µg/mL | 128% | 0% | 
